Activity calls are given as the source filed them. No cut-off for these calls is given here.
Tests used:
U-87 MG [1] = assay: Induction of cell cycle arrest in human U87MG cells assessed as multi-nucleated giant cells at 1 uM incubated for 48 hrs by TO-PRO-3 dye based immunocytochemistry analysis; format: functional; details: U-87MG ATCC
U-251 = assay: Cytotoxicity against human U251 cells assessed as reduction in cell viability incubated for 48 hrs by MTT assay; details: U-251, 48 h
U-87 MG [2] = assay: Induction of apoptosis in human U87MG cells assessed as early apoptotic cells at 10 uM incubated for 48 hrs by Annexin-V/propidium iodide staining based flow cytometric method (reference value: 4.55 %); format: functional, U-87MG ATCC
U-87 MG [3] = assay: Induction of apoptosis in human U87MG cells assessed as late apoptotic cells at 10 uM incubated for 48 hrs by Annexin-V/propidium iodide staining based flow cytometric method (reference value: […]); format: functional, U-87MG ATCC
A 172 = assay: Cytotoxicity against human A172 cells assessed as reduction in cell viability incubated for 48 hrs by MTT assay; details: A 172, 48 h
U-87 MG [4] = assay: Induction of apoptosis in human U87MG cells assessed as necrotic cells at 10 uM incubated for 48 hrs by Annexin-V/propidium iodide staining based flow cytometric method (reference value: […]); format: functional, U-87MG ATCC
U-87 MG [5] = assay: Induction of apoptosis in human U87MG cells assessed as live cells at 10 uM incubated for 48 hrs by Annexin-V/propidium iodide staining based flow cytometric method (reference value: 94.2%); format: functional, U-87MG ATCC
U-87 MG [6] = assay: Inhibition of cell migration in human U87MG cells assessed as reduction of cell mobility at 0.2 to 1 uM measured at 24 to 48 hrs by scratch wound assay; format: functional, cell-based; details: U-87MG ATCC, dose microM 0.2-1, time hrs 24-48
U-87 MG [7] = assay: Cytotoxicity against human U-87 MG cells assessed as reduction in cell viability incubated for 48 hrs by MTT assay
U-87 MG [8] = assay: Induction of cell cycle arrest in human U87MG cells assessed as accumulation at G0/G1 phase at 1 uM incubated for 48 hrs by propidium iodide staining based flow cytometry analysis (reference value: 51.6 +/- […]); format: functional, U-87MG ATCC
U-87 MG [9] = assay: Inhibition of cell adhesion in human U87MG cells assessed as increase in appearance of stress fiber at 1 uM incubated for 48 hrs by FITC-conjugated phalloidin and TO-PRO3 staining based microscopic analysis; format: functional; details: U-87MG ATCC
U-87 MG [10] = assay: Induction of cell cycle arrest in human U87MG cells assessed as increase in accumulation at G2 phase at 1 uM incubated for 48 hrs by propidium iodide staining based flow cytometry analysis; format: functional; details: U-87MG ATCC
U-87 MG [11] = assay: Induction of cell cycle arrest in human U87MG cells assessed as accumulation in G2/M phase at 1 uM incubated for 48 hrs by propidium iodide staining based flow cytometry analysis (reference value: 28.9 +/- 2.1 %); format: functional, U-87MG ATCC; details: dose microM 1-10
U-87 MG [12] = assay: Induction of cellular senescence in human U87MG cells assessed as flat and enlarged cells at 1 uM incubated for 48 hrs by TO-PRO-3 dye based immunocytochemistry analysis; format: functional, cell-based; details: U-87MG ATCC
U-87 MG [13] = assay: Induction of cell cycle arrest in human U87MG cells assessed as accumulation at S phase at 1 uM incubated for 48 hrs by propidium iodide staining based flow cytometry analysis (reference value: 19.5 %); format: functional, U-87MG ATCC
[14] = biological target: Proto-oncogene tyrosine-protein kinase Src (Homo sapiens) (UniProt P12931); assay: Inhibition of human recombinant Src at 100 nM in presence of [gamma33P]ATP by radiometric assay relative to control
Focal adhesion kinase 1 [15] = biological target: T1, Focal adhesion kinase 1 (Homo sapiens, UniProt Q05397); assay: Inhibition of recombinant human N-terminal His-tagged FAK (393 to 698 residues) expressed in baculovirus infected Sf9 insect cells using Poly (4:1 Glu, Tyr) as substrate measured after 1 hr by ADP-glo luminescence assay
[16] = biological target: Insulin-like growth factor 1 receptor (Homo sapiens) (UniProt P08069); assay: Inhibition of human recombinant IGF1R at 100 nM by [gamma-33ATP] radiometric assay relative to control
Focal adhesion kinase 1 [17] = biological target: T1, Focal adhesion kinase 1; assay: Covalent inhibition of recombinant human N-terminal His-tagged FAK (393 to 698 residues) expressed in baculovirus infected Sf9 insect cells using Poly (4:1 Glu, Tyr) as substrate preincubated for 2 to 60 mins followed by substrate addition and measured after 1 hr by ADP-glo luminescence assay
[18] = biological target: Epidermal growth factor receptor (Homo sapiens) (UniProt P00533); assay: Inhibition of human recombinant EGFR at 100 nM in presence of [gamma33P]ATP by radiometric assay relative to control
[19] = biological target: Platelet-derived growth factor receptor alpha (Homo sapiens) (UniProt P16234); assay: Inhibition of human recombinant PDGFRA at 100 nM by [gamma-33ATP] radiometric assay relative to control
Focal adhesion kinase 1 [20] = biological target: T1, Focal adhesion kinase 1; details: U-87 MG, dose microM 0.6-3, time 48.0 hrs
Target sequence in this assay (Q05397 2-1052 limits assumed): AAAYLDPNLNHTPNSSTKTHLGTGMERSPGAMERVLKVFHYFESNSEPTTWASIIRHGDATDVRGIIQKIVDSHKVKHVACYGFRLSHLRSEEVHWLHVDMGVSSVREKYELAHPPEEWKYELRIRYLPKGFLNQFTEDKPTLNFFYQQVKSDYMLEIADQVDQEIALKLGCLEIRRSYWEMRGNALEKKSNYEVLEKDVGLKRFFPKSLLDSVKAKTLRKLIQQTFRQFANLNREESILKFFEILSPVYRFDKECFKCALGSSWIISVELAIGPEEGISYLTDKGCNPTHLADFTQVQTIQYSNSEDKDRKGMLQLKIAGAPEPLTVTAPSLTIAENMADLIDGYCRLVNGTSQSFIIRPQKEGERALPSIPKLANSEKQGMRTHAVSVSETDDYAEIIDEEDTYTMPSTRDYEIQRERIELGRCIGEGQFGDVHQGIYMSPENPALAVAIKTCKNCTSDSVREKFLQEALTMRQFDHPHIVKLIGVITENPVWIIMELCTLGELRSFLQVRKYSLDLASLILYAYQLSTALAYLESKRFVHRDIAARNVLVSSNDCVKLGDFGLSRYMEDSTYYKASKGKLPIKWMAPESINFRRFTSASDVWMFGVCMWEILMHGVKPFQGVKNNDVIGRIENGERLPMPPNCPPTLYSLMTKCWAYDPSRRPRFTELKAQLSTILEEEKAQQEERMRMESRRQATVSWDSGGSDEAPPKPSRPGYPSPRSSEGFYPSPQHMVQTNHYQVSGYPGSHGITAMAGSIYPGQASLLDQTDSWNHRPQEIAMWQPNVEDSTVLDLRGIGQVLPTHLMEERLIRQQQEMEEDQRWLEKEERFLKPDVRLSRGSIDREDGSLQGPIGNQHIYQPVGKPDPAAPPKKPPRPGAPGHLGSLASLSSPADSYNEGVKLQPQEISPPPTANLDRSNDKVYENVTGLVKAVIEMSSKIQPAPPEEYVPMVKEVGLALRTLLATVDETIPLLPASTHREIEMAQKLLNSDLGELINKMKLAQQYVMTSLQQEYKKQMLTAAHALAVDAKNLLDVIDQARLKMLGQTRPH

[21] = biological target: Insulin receptor (Homo sapiens) (UniProt P06213); assay: Inhibition of human recombinant IR at 100 nM by [gamma-33ATP] radiometric analysis relative to control
[22] = biological target: Fibroblast growth factor receptor 1 (Homo sapiens) (UniProt P11362); assay: Inhibition of human recombinant FGFR1 (456 to 765 residues) at 100 nM in presence of [gamma33P]ATP by radiometric assay relative to control
[23] = biological target: Protein-tyrosine kinase 2-beta (Homo sapiens) (UniProt Q14289); assay: Inhibition of recombinant human full length PYK2 at 100 nM in presence of [gamma32P]-ATP by radiometric analysis relative to control
Focal adhesion kinase 1 [24] = biological target: T1, Focal adhesion kinase 1; assay: Inhibition of human recombinant FAK at 100 nM by [gamma32P]-ATP radiometric analysis relative to control
Target sequence in this assay (Q05397 2-1052 limits assumed): as above

[25] = biological target: T2, Serine/threonine-protein kinase AKT (Homo sapiens) (UniProt P31751+Q9Y243+P31749); assay: Inhibition of human Akt at 100 nM in presence of [33P]-ATP by radiometric analysis relative to control; format: protein assay
[26] = biological target: Mast/stem cell growth factor receptor Kit (Homo sapiens) (UniProt P10721); assay: Inhibition of human recombinant c-kit at 100 nM in presence of [gamma33P]ATP by radiometric assay relative to control
Homo sapiens = organism: Homo sapiens; assay: Inhibition of human recombinant Erk at 100 nM measured in presence of [33P]-ATP by radiometric analysis relative to control
[27] = biological target: T2, Serine/threonine-protein kinase AKT (Homo sapiens); assay: Activation of AKT in human U87MG cells at 0.1 to 10 uM incubated for 48 hrs by Western blot analysis; format: cell-based; details: U-87 MG, dose microM 0.1-10, time 48.0 hrs
Focal adhesion kinase 1 [28] = biological target: T1, Focal adhesion kinase 1; details: U-87 MG, dose microM 0.1-10, time 48.0 hrs
Target sequence in this assay (Q05397 2-1052 limits assumed): as above

Focal adhesion kinase 1 [29] = biological target: T1, Focal adhesion kinase 1; details: U-87 MG, dose microM 0.1-10, time 48.0 hrs; remark: listed apart in the source
Target sequence in this assay (Q05397 2-1052 limits assumed): as above

Focal adhesion kinase 1 [30] = biological target: T1, Focal adhesion kinase 1; details: U-87 MG, dose microM 0.1-5, time 48.0 hrs
Target sequence in this assay (Q05397 2-1052 limits assumed): as above

Focal adhesion kinase 1 [31] = biological target: T1, Focal adhesion kinase 1; details: U-87 MG, dose microM 0.1-5, time 48.0 hrs; remark: listed apart in the source
Target sequence in this assay (Q05397 2-1052 limits assumed): as above

Focal adhesion kinase 1 [32] = biological target: T1, Focal adhesion kinase 1; details: U-87 MG, dose microM 0.1-10, time 48.0 hrs; remark: listed apart in the source
U-87 MG [33] = assay: Activation of ERK in human U87MG cells at 0.1 to 10 uM incubated for 48 hrs by Western blot analysis; format: cell-based; details: dose microM 0.1-10, time 48.0 hrs

T2 sequence (P31749 whole entry, looked up): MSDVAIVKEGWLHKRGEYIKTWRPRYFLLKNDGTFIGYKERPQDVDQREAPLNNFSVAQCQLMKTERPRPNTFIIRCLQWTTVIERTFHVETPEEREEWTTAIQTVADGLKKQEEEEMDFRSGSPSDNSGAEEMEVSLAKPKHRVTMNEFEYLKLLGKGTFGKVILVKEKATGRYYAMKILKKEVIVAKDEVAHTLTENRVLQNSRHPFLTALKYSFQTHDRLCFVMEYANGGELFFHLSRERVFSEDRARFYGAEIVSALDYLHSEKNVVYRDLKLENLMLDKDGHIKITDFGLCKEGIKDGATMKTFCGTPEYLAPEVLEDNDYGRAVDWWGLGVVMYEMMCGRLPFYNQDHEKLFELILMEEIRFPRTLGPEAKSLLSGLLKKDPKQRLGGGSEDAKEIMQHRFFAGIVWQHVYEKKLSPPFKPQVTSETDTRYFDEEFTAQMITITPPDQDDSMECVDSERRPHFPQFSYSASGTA
T2 sequence (P31751 whole entry, looked up): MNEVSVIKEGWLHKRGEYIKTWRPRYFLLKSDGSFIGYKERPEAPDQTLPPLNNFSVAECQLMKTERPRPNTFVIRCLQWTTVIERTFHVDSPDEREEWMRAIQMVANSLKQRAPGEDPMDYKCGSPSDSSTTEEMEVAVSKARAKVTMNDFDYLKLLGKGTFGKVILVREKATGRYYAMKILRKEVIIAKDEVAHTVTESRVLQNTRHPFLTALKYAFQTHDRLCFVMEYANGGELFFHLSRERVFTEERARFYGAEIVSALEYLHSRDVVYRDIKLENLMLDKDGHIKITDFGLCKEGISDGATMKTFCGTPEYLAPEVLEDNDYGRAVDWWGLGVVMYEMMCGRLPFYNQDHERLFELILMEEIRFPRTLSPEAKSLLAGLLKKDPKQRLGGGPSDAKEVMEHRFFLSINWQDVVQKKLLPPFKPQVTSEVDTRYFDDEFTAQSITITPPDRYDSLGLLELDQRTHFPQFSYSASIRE
T2 sequence (Q9Y243 whole entry, looked up): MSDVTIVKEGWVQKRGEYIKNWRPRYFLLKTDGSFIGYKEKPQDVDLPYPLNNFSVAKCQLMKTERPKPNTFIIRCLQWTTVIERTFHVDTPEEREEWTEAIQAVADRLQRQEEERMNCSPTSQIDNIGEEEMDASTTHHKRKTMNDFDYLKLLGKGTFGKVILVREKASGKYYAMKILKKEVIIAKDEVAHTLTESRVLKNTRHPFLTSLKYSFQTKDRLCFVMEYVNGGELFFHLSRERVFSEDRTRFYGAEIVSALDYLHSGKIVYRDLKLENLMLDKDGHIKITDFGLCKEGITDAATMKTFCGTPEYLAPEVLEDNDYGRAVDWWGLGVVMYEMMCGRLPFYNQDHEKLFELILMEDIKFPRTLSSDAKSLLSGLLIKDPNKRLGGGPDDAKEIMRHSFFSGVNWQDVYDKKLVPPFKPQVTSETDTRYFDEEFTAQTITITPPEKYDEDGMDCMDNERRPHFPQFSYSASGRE
Platelet-derived growth factor receptor alpha (Homo sapiens), sequence (P16234 whole entry): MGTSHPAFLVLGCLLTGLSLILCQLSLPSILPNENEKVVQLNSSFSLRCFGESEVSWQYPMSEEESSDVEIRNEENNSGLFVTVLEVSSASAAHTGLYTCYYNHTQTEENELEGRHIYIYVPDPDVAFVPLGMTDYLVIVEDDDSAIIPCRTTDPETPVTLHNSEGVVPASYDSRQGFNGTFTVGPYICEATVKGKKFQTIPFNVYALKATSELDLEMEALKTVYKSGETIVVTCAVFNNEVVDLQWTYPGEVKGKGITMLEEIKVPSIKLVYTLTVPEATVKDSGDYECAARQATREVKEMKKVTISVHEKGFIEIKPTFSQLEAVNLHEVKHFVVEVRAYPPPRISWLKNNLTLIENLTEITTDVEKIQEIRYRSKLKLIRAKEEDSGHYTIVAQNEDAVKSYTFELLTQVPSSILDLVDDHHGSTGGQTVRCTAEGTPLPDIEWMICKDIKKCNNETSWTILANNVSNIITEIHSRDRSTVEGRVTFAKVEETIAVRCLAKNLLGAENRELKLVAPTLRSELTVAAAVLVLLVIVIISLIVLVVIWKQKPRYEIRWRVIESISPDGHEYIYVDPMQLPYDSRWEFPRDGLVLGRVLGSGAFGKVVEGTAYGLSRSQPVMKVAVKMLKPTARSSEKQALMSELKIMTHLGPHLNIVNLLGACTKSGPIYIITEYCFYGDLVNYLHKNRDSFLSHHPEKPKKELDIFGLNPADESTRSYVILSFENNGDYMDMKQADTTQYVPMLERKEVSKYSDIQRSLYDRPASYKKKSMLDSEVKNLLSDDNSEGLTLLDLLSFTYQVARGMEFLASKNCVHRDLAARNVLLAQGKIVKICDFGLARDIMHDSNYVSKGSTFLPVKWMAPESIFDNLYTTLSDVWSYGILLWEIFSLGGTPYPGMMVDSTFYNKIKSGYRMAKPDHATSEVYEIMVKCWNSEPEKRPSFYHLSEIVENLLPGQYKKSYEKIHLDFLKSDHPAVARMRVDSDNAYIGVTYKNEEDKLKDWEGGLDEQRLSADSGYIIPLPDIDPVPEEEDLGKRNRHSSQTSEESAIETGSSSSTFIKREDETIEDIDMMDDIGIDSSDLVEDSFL
Proto-oncogene tyrosine-protein kinase Src (Homo sapiens), sequence (P12931 2-536 limits assumed): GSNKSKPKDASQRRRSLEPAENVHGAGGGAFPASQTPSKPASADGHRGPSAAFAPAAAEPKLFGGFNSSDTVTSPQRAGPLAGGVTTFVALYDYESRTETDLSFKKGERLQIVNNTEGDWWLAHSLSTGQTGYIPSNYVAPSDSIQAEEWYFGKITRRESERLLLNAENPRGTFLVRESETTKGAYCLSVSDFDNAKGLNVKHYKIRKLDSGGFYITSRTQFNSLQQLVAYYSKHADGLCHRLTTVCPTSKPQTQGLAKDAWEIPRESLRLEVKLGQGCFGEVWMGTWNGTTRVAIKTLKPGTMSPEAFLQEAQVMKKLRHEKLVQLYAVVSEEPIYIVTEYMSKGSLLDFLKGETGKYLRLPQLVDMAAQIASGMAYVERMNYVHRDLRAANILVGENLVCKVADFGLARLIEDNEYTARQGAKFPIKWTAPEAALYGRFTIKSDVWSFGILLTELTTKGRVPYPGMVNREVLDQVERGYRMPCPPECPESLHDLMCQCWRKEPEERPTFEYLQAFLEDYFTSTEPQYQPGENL

Row | Structure (SMILES) | Activity (U-87 MG [1]) | IC50 (U-251) | Activity (U-87 MG [2]) | Activity (U-87 MG [3]) | IC50 (A 172) | Activity (U-87 MG [4]) | Activity (U-87 MG [5]) | inhibition (U-87 MG [6]) | IC50 (U-87 MG [7]) | Activity (U-87 MG [8]) | inhibition (U-87 MG [9]) | Activity (U-87 MG [10]) | Activity (U-87 MG [11]) | Activity (U-87 MG [12]) | Activity (U-87 MG [13]) | inhibition [14] | IC50 (Focal adhesion kinase 1 [15]) | inhibition [16] | inhibition [18] | inhibition [19] | also measured
1 | CNC(=O)c1ccccc1Nc1nc(Nc2ccc(CNc3c(NCCNC(=O)/C(C#N)=C/C4CC4)c(=O)c3=O)cc2)ncc1Cl | Active | 1200 nM | 7.3% | 4.06% | 890 nM | 1.39% | 87.3% | Active | 7200 nM | 8.1% | Active | Active | 83.1% | Active | 8.8% |  |  |  |  |  | 
2 | C=CC(=O)NCCNc1c(NCc2ccc(Nc3ncc(C(F)(F)F)c(Nc4ccccc4C(=O)NC)n3)cc2)c(=O)c1=O | Active | 150 nM | 5.6% | 3.85% | 130 nM | 1.1% |  | Active | 3300 nM | 13.7% | Active | Active | 75.1% | Active | 11.2% | 55.6% | 6.8 nM | 94.4% | 29% | 78.4% | Ki (Focal adhesion kinase 1 [17]): 2.64 nM; inhibition (Focal adhesion kinase 1 [20]): Dose-dependent effect; inhibition [21]: 82.5%; inhibition [22]: 88.3%; inhibition [23]: 99.8%; inhibition (Focal adhesion kinase 1 [24]): 98.6%; inhibition [25]: 25.1%; inhibition [26]: 0.1%; inhibition (Homo sapiens): 21.8%
3 | CNC(=O)c1ccccc1Nc1nc(Nc2ccc(CNc3c(NCCNC(=O)/C(C#N)=C/C(C)C)c(=O)c3=O)cc2)ncc1Cl | Active | 9800 nM | 0% | 0.21% | 1300 nM | 3.37% | 96.4% | Active | 7100 nM | 12.7% | Active | Active | 79.1% | Active | 8.2% | 31.1% | 1.2 nM | 71.9% | 25.1% | 67.5% | Activity [27]: inactive; inhibition (Focal adhesion kinase 1 [28]): Dose-dependent effect; Ki (Focal adhesion kinase 1 [17]): 0.47 nM; inhibition (Focal adhesion kinase 1 [29]): Dose-dependent effect; inhibition (Focal adhesion kinase 1 [20]): Dose-dependent effect; inhibition [21]: 32.4%; inhibition [22]: 83.5%; inhibition (Focal adhesion kinase 1 [30]): Dose-dependent effect; inhibition (Focal adhesion kinase 1 [31]): inactive; inhibition [23]: 97.5%; inhibition (Focal adhesion kinase 1 [24]): 94.1%; inhibition (Focal adhesion kinase 1 [32]): Dose-dependent effect; inhibition [25]: 19.9%; inhibition [26]: 0%; Activity (U-87 MG [33]): inactive; inhibition (Homo sapiens): 4.3%
4 | CNC(=O)c1ccccc1Nc1nc(Nc2ccc(N3CCOCC3)cc2OC)ncc1Cl | Active | 6300 nM | 7.24% | 2.45% | 8300 nM | 2.2% | 88.1% | Active | 2900 nM | 16.2% | Active | Active | 66.1% | Active | 19.5% |  |  |  |  |  | inhibition (Focal adhesion kinase 1 [28]): Dose-dependent effect; inhibition (Focal adhesion kinase 1 [29]): Dose-dependent effect; inhibition (Focal adhesion kinase 1 [20]): Dose-dependent effect; inhibition (Focal adhesion kinase 1 [31]): Active; inhibition (Focal adhesion kinase 1 [32]): Dose-dependent effect
5 | C=CC(=O)NCCNc1c(NCc2ccc(Nc3ncc(Cl)c(NCc4cccnc4N(C)S(C)(=O)=O)n3)cc2)c(=O)c1=O |  |  |  |  |  |  |  |  |  |  |  |  |  |  |  | 17.9% | 5.5 nM | 28.1% | 1.2% | 12.5% | inhibition [21]: 15.1%; inhibition [22]: 32.5%; inhibition [23]: 68.3%; inhibition (Focal adhesion kinase 1 [24]): 92.2%; inhibition [25]: 2.5%; inhibition [26]: 0%; inhibition (Homo sapiens): 4.1%

— ChEMBL document CHEMBL4699600, “Design, Synthesis, and Biological Evaluation of Covalent Inhibitors of Focal Adhesion Kinase (FAK) against Human Malignant Glioblastoma” (J Med Chem, 2020)
